From ChEMBL document CHEMBL4190211, “Biosynthesis of Fluorinated Peptaibols Using a Site-Directed Building Block Incorporation Approach” (J Nat Prod, 2017) come the findings set out here.

Square brackets hold non-standard residues; d marks the D form. Peptide text beside a SMILES is read from it. * marks the point of attachment. Phe(ol) = N[C@H](CO)Cc1ccccc1; X1 = OC[C@H](Cc1cccc(F)c1)N*; X2 = OC[C@H](Cc1ccccc1F)N*; Aib = CC(C)(N)C(=O)O

Broadly, the IC50 is the concentration needed to halve the response being measured.

The test system of test [1] is OVCAR-3. As to the kind of experiment: Cytotoxicity against human OVCAR3 cells assessed as decrease in cell viability after 72 hrs by CellTiter 96 AQueous one solution cell proliferation assay. It is filed as functional, cell-based. To be noted: OVCAR-3, 72 h.
Test [2] has as its system MDA-MB-435. The test can be described thus: Cytotoxicity against human MDA-MB-435 cells assessed as decrease in cell viability after 72 hrs by CellTiter 96 AQueous one solution cell proliferation assay. It is filed as functional, cell-based. The settings on record: MDA-MB-435, 72 h.
The test system of test [3] is MDA-MB-231. As to the kind of experiment: Cytotoxicity against human MDA-MB-231 cells assessed as decrease in cell viability after 72 hrs by CellTiter 96 AQueous one solution cell proliferation assay. The settings on record: MDA-MB-231, 72 h.

As for `CC(=O)NC(C)(C)C(=O)N[C@@H](C)C(=O)NC(C)(C)C(=O)N[C@@H](C)C(=O)NC(C)(C)C(=O)N[C@@H](C)C(=O)N[C@@H](CCC(N)=O)C(=O)NC(C)(C)C(=O)N[C@H](C(=O)NC(C)(C)C(=O)NCC(=O)N[C@@H](CC(C)C)C(=O)NC(C)(C)C(=O)N1CCC[C@H]1C(=O)N[C@H](C(=O)NC(C)(C)C(=O)NC(C)(C)C(=O)N[C@@H](CCC(N)=O)C(=O)N[C@@H](CCC(N)=O)C(=O)N[C@H](CO)Cc1cccc(F)c1)C(C)C)C(C)C` (Ac-[Aib]A[Aib]A[Aib]AQ[Aib]V[Aib]GL[Aib]PV[Aib][Aib]QQ-X1), in test [1], the IC50 turned out to be 4.4 µM.
Regarding `CC(=O)NC(C)(C)C(=O)N[C@@H](C)C(=O)NC(C)(C)C(=O)N[C@@H](C)C(=O)NC(C)(C)C(=O)N[C@@H](C)C(=O)N[C@@H](CCC(N)=O)C(=O)NC(C)(C)C(=O)N[C@H](C(=O)NC(C)(C)C(=O)NCC(=O)N[C@@H](CC(C)C)C(=O)NC(C)(C)C(=O)N1CCC[C@H]1C(=O)N[C@H](C(=O)NC(C)(C)C(=O)NC(C)(C)C(=O)N[C@@H](CCC(N)=O)C(=O)N[C@@H](CCC(N)=O)C(=O)N[C@H](CO)Cc1ccccc1F)C(C)C)C(C)C` (Ac-[Aib]A[Aib]A[Aib]AQ[Aib]V[Aib]GL[Aib]PV[Aib][Aib]QQ-X2), in test [1], the IC50 was 5 µM.
In the case of `CC(=O)NC(C)(C)C(=O)N[C@@H](C)C(=O)NC(C)(C)C(=O)N[C@@H](C)C(=O)NC(C)(C)C(=O)N[C@@H](C)C(=O)N[C@@H](CCC(N)=O)C(=O)NC(C)(C)C(=O)N[C@H](C(=O)NC(C)(C)C(=O)NCC(=O)N[C@@H](CC(C)C)C(=O)NC(C)(C)C(=O)N1CCC[C@H]1C(=O)N[C@H](C(=O)NC(C)(C)C(=O)NC(C)(C)C(=O)N[C@@H](CCC(N)=O)C(=O)N[C@@H](CCC(N)=O)C(=O)N[C@H](CO)Cc1ccccc1)C(C)C)C(C)C` (Ac-[Aib]A[Aib]A[Aib]AQ[Aib]V[Aib]GL[Aib]PV[Aib][Aib]QQ[Phe(ol)]), the IC50 in test [1] was 5.1 µM; in test [2], 4.8 µM; in test [3] it was 5.1 µM.
Turning to `CC(=O)O[C@H]1C(=O)[C@@]2(C)[C@H]([C@H](OC(=O)c3ccccc3)[C@]3(O)C[C@H](OC(=O)[C@H](O)[C@@H](NC(=O)c4ccccc4)c4ccccc4)C(C)=C1C3(C)C)[C@]1(OC(C)=O)CO[C@@H]1C[C@@H]2O` [PACLITAXEL], the 50% inhibitory concentration (IC50) in test [1] came out at 0.002 µM.
